Laboratory results from patent US20210278408A1, “METHODS OF TREATMENT OF CANCER WITH SUBSTITUTED PYRROLE AND PYRAZOLE COMPOUNDS AND DIAGNOSIS OF CANCERS SUSCEPTIBLE TO TREATMENT WITH SUBSTITUTED PYRROLE AND PYRAZOLE COMPOUNDS” (Bantam Pharmaceutical, LLC, priority 2018, published 2021).
Read-outs that look alike come from different tables or passages of the source.

Key:
[1] = tested on: BJAB (malignant human B-cell-line); test: BJAB cell proliferation; type: cell-based; conditions: BJAB (malignant human B-cell-line) cell proliferation, EC50; read-out: BJAB
[2] = tested on: panel of 96 tumor and 3 normal cell lines; test: Anti-proliferative activity in a panel of 99 cell lines, CellTiter-Glo, 72 hours; type: cell-based, human; conditions: for IC50: Homo sapiens, in responsive cell lines, read-out: activity range; for % of hematopoietic tumor lines being responsive / % of solid tumor lines being responsive: IC50<2 μM; for active in % of the tested cell lines (IC50<2 μM): all tested cell lines; for % of NSCLC tumor lines responsive / % of colorectal tumor lines responsive / % of sarcoma tumor lines responsive: among solid tumor lines; for activity in primary diploid cell lines: e.g. human umbilical vein endothelial cells and normal human lung fibroblasts (NHLF)
Experimental: (§1) Anti-proliferative activity of BTM compounds. The anti-proliferative activities of Compound A197 and Compound B19 were compared to 4EGI-1 (a known cancer cell growth inhibitor) in a panel of 99 tumor lines. Methods: A panel of 96 tumor and 3 normal cell lines were tested for sensitivity to the test compound. The cell lines were cultured in standard media and pipetted into 96-well plates at the required plating densities. The cells were acclimated for 24 hours prior to compound testing. Compound was prepared as a stock of 20 mM in DMSO. To prepare dose response curves compound was serially diluted in DMSO and dispensed into the plate wells using a Tecan D300e digital dispenser. The final DMSO concentration was 0.15%. After 72 hours of incubation cell number was determined using the CellTiter-Glo® protocol according to the manufacturers instructions (Promega). In this assay, ATP is measured as a surrogate of cell number. The activity of the compound is determined by comparing untreated cells with treated cells and calculating the % of signal retained. Compound activity is measured as an EC50 of maximum level of efficacy and the two are used to compute an activity area. The table below provides a comparison of activity in a data sample.

[3] = tested on: A549; test: Anti-proliferative activity, CellTiter-Glo, 72 hours: A549; type: cell-based, human; conditions: Homo sapiens, A549 (non-small cell lung cancer), Cell-Titre-Glo
Experimental: as §1

[4] = tested on: HCT-116; test: Anti-proliferative activity, CellTiter-Glo, 72 hours: HCT-116; type: cell-based, human; conditions: Homo sapiens, HCT-116 (colorectal cancer), Cell-Titre-Glo
Experimental: as §1

[5] = tested on: LoVo; test: Anti-proliferative activity, CellTiter-Glo, 72 hours: LoVo; type: cell-based, human; conditions: Homo sapiens, LoVo (colorectal cancer), Cell-Titre-Glo
Experimental: as §1

[6] = tested on: MDA-MB-157; test: Anti-proliferative activity, CellTiter-Glo, 72 hours: MDA-MB-157; type: cell-based, human; conditions: Homo sapiens, MDA-MB-157, 72 h
Experimental: as §1

[7] = tested on: MDA-MB-231; test: Anti-proliferative activity, CellTiter-Glo, 72 hours: MDA-MB-231; type: cell-based, human; conditions: Homo sapiens, MDA-MB-231 (breast cancer), Cell-Titre-Glo
Experimental: as §1

[8] = tested on: NCI-H2122; test: Anti-proliferative activity, CellTiter-Glo, 72 hours: NCI-H2122; type: cell-based, human; conditions: Homo sapiens, NCI-H2122 (non-small cell lung cancer), Cell-Titre-Glo
Experimental: as §1

[9] = tested on: NCI-H460; test: Anti-proliferative activity, CellTiter-Glo, 72 hours: NCI-H460; type: cell-based, human; conditions: Homo sapiens, NCI-H460 (non-small cell lung cancer), Cell-Titre-Glo
Experimental: as §1

[10] = tested on: SU-DHL-6; test: Anti-proliferative activity, CellTiter-Glo, 72 hours: SU-DHL-6; type: cell-based, human; conditions: Homo sapiens, SU-DHL-6 (B-cell lymphoma), Cell-Titre-Glo
Experimental: as §1

[11] = tested on: SU-DHL-4; test: Anti-proliferative activity, CellTiter-Glo, 72 hours: SU-DHL-4; type: cell-based, human; conditions: Homo sapiens, SU-DHL-4 (B-cell lymphoma), Cell-Titre-Glo
Experimental: as §1

[12] = tested on: 8305C; test: Cell viability, CellTiter-Glo, 96 h: 8305C; type: cell-based; conditions: for IC50: read-out: Absolute IC50
Experimental: Viability was determined by using the 50% inhibitory concentration (IC50) as determined with the CellTiter-Glo® Viability Assay (Promega). All cells were cultured under standard conditions in media supplemented with 10-15% Fetal Bovine Serum, at a temperature of 37° C., 5% CO2 and 95% humidity.
Cells were harvested during the logarithmic growth period, counted, and the cell concentration adjusted to 4.44×10^4 cells/mL using culture medium. A final cell density of 4×10^3 cells/well was added in a 90 μL cell suspension to plates A and B as shown.
Test plate B was incubated for 96 h in the humidified incubator at 37° C. with 5% CO2.
Following the incubation, the plate was equilibrated at room temperature for thirty minutes. CellTiter-Glo® (50 μL) was added to each well of the plate and contents mixed for five minutes on an orbital shaker to induce cell lysis. The luminescent signal was allowed to stabilize at room temperature for 20 minutes and the luminescence recorded.
IC50 (EC50) was calculated using a dose-response curve, fitted using a nonlinear regression model with a sigmoidal dose response. Survival rate was calculated using the formula:
The Surviving rate (%)=(LumTest article−LumMedium control)/(LumNon-treated−LumMedium control)×100%.
Absolute IC50 (EC50) was calculated according to the dose-response curve generated by the statistical software (GraphPad Prism 5.0).

[13] = tested on: SU-DHL-2; test: Total cellular GSH levels (GSH-Glo): SU-DHL-2; type: cell-based, human; conditions: 4 hrs, mean ± std. dev.
Experimental: (§2) NHLF, BJAB, SU-DHL-2, and HCT-116 cells were treated with Compound A197 for 4 hours prior to lysate harvest. Total cellular glutathione (GSH) levels were determined using a luminescent endpoint (GSH-Glo, Promega). Cell proliferation was determined using Cell-Titre Glo following 72 hours of compound treatment. All data shown is mean±SD of three biological replicates.

[14] = tested on: HCT-116; test: Total cellular GSH levels (GSH-Glo): HCT-116; type: cell-based, human; conditions: 4 hrs, mean ± std. dev.
Experimental: as §2

[15] = tested on: SU-DHL-2; test: Cell proliferation, Cell-Titre Glo, 72 hours: SU-DHL-2; type: cell-based; conditions: Homo sapiens, mean ± std. dev.
Experimental: as §2

[16] = tested on: NHLF; test: Apoptosis, 72 hr: NHLF; type: cell-based, human
[17] = Homo sapiens, read-out: GSH IC50 (Abs)

Row | Structure (SMILES) | IC50 [2] | % of hematopoietic tumor lines being responsive [2] | % of solid tumor lines being responsive [2] | active in % of the tested cell lines (IC50<2 μM) [2] | % of NSCLC tumor lines responsive [2] | % of colorectal tumor lines responsive [2] | % of sarcoma tumor lines responsive [2] | activity in primary diploid cell lines [2] | IC50 [3] | IC50 [4] | IC50 [5] | IC50 [6] | IC50 [7] | IC50 [8] | IC50 [9] | IC50 [10] | IC50 [11] | % inhibition at top conc. [12] | also measured
1 | COC(=O)c1c(-c2cccc(F)c2)c(C)nn1-c1nc(C2=CCC(C(F)(F)F)CC2)c(SC(C)C)s1 (single isomer, unassigned) [Compound B19, methyl 4-(3-fluorophenyl)-1-(5-(isopropylthio)-4-(4-(trifluoromethyl)cyclohex-1-en-1-yl)thiazol-2-yl)-3-methyl-1H-pyrazole-5-carboxylate] | 100 to 2000 nM | 90% | 28% | 40% | 80% | 37% | 40% | tested negative | 189 nM | 343 nM | 116 nM | > 30 µM | > 30 µM | 184 nM | 167 nM | 538 nM | 360 nM | – | EC50 [1]: < 1000 nM
2 | N.N.[Cl][Pt][Cl] [Cisplatin, reference compound] | – | – | – | – | – | – | – | – | – | – | – | – | – | – | – | – | – | 99.17% | IC50 [12]: 6.14 µM
3 | Cc1nn(-c2nc(-c3ccc(C(F)(F)F)cc3)c(SC(C)C)s2)c(C(=O)O)c1-c1cccc(F)c1 [Compound A197, 4-(3-fluorophenyl)-1-(5-(isopropylthio)-4-(4-(trifluoromethyl)phenyl)thiazol-2-yl)-3-methyl-1H-pyrazole-5-carboxylic acid] | 100 to 2000 nM | 90% | 28% | 40% | 80% | 37% | 40% | tested negative | 312 nM | 295 nM | 123 nM | > 30 µM | > 30 µM | 200 nM | 156 nM | 521 nM | 288 nM | 33.79% | GSH % Max reduction [13]: 52 ± 4%; IC50 [13, 17]: 120 ± 50 nM; GSH % Max reduction [14]: 43 ± 9%; IC50 [14, 17]: 360 ± 720 nM; IC50 [15]: 180 ± 60 nM; Apoptosis, 72 hr [16]: No; IC50 ([12]; Homo sapiens): > 30 µM
